Test results reported in patent publication US20080268092A1, “Capsaicin Nutritional Supplement” (priority 2004, published 2008).

Legend:
[1] = Personal experience of capsaicin use; format: in vivo; conditions: humans
[2] = cited from earlier work
[3] = animal models; cited from earlier work
[4] = cited from earlier work; remark: listed apart in the source

Structure (SMILES) | effects of use on energy, exercise capacity, endurance, mood, appetite, alertness [1] | solubility in water [2] | endurance capacity [3] | lipolysis [3] | mean half-life in plasma ([4]; healthy individuals) | blood-brain barrier passage ([4]; in vivo)
COc1cc(CNC(=O)CCCC/C=C/C(C)C)ccc1O [Capsaicin] | boosts energy, increases exercise capacity, increases endurance, improves mood, decreases appetite and increases alertness | only slightly soluble in water | increase endurance capacity | promote lipolysis |  | 
Cn1c(=O)c2c(ncn2C)n(C)c1=O [caffeine] |  |  |  |  | about 5 hours | readily crosses the blood-brain barrier
